Assay results taken from the NIST ThermoML archive (doi:10.1016/j.jct.2007.04.005).

Test: xn = mol fraction of the nth substance listed
Conditions: Liquid, x1 = 1

C1CCCCC1 [cyclohexane] + CCCCCCCCC
mass density [kg/m3]
Conditions | 298.15 K | 308.15 K | 318.15 K | 328.15 K
100 kPa | 773.8 | 764.4 | 754.8 | 745.4
101 kPa | 773.8 | 764.38 | 754.99 | 745.55
2130 kPa | 775.5 | 766.2 | 756.7 | 746.6
4150 kPa | 777.2 | 767.9 | 758.7 | 749.6
6180 kPa | 778.8 | 769.7 | 760.6 | 751.6
8210 kPa | 780.4 | 771.4 | 762.4 | 753.6
10230 kPa | 782 | 773.1 | 764.2 | 755.5
11250 kPa | 782.8 | 773.9 | 765.1 | 756.4
12260 kPa | 783.5 | 774.7 | 766 | 757.4
14290 kPa | 785 | 776.4 | 767.7 | 759.2
16310 kPa | 786.5 | 777.9 | 769.4 | 761
18340 kPa | 788 | 779.5 | 771.1 | 762.8
20370 kPa | 789.4 | 781 | 772.7 | 764.5
22390 kPa | 790.9 | 782.5 | 774.3 | 766.2
24420 kPa | 792.2 | 784 | 775.8 | 767.9
26450 kPa | 793.6 | 785.5 | 777.3 | 769.6
28470 kPa | 794.9 | 786.9 | 778.8 | 771.2
29490 kPa | 795.6 | 787.6 | 779.6 | 772
30500 kPa | 796.1 | 788.3 | 780.3 | 772.7
32530 kPa | 797.5 | 789.7 | 781.7 | 774.3
34550 kPa | 798.7 | 791 | 783.2 | 775.8
36580 kPa | 800 | 792.4 | 784.6 | 777.3
38600 kPa | 801.2 | 793.7 | 786 | 778.8
39620 kPa | 801.7 | 794.3 | 786.7 | 779.4
